Measured values reported in ChEMBL document CHEMBL1201862, “PubChem BioAssay data set” (2004).
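Five concentrations, 48 hours, 96-well plates. At the GI50, growth is halved.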 Calls of active or inactive are those of the source. Rule as the data show it: active = GI50 up to about 1.1 µM and inactive = higher.

Key:
Experiment in all cases: inhibition of tumour cell growth, NCI panel, 48 h
[1] = test system: CAKI-1
[2] = test system: Malme-3M
[3] = test system: SK-MEL-28
[4] = test system: HL-60
[5] = test system: LOX IMVI
[6] = test system: NCI-H226
[7] = test system: TK-10
[8] = test system: OVCAR-3
[9] = test system: UACC-62
[10] = test system: SNB-78
[11] = test system: CCRF-CEM
[12] = test system: COLO 205
[13] = test system: RXF 631
[14] = test system: HCC 2998
[15] = test system: NCI-H522
[16] = test system: 786-0
[17] = test system: EKVX
[18] = test system: HCT-15
[19] = test system: LXFL 529
[20] = test system: HCT-116
[21] = test system: IGROV-1
[22] = test system: K562
[23] = test system: SF-295
[24] = test system: SF-539
[25] = test system: UO-31
[26] = test system: U-251
[27] = test system: SK-MEL-5
[28] = test system: HOP-18
[29] = test system: RXF 393
[30] = test system: DLD-1
[31] = test system: SK-OV-3
[32] = test system: SF-268
[33] = test system: MOLT-4
[34] = test system: SW-620
[35] = test system: UACC-257
[36] = test system: SNB-19
[37] = test system: SR
[38] = test system: OVCAR-5
[39] = test system: NCI-H23
[40] = test system: OVCAR-8
[41] = test system: HOP-92
[42] = test system: ACHN
[43] = test system: HOP-62
[44] = test system: A498
[45] = test system: DMS-273
[46] = test system: NCI-H460
[47] = test system: SK-MEL-2
[48] = test system: KM12
[49] = test system: A549
[50] = test system: OVCAR-4
[51] = test system: KM-20L2
[52] = test system: DMS-114
[53] = test system: RPMI-8226
[54] = test system: SN12C
[55] = test system: M14
[56] = test system: HT-29
[57] = test system: SNB-75
[58] = test system: M19-MEL

Measured: GI50

COc1cccc(CC(C)N)c1 (stereo not given)
inactive: [1] > 100 µM | [2] > 100 µM | [3] > 100 µM | [4] > 100 µM | [5] > 100 µM | [6] > 100 µM | [7] > 100 µM | [8] > 100 µM | [9] > 100 µM | [10] > 100 µM | [11] > 100 µM | [12] > 100 µM | [13] > 100 µM | [14] > 100 µM | [15] > 100 µM | [16] > 100 µM | [17] > 100 µM | [19] > 100 µM | [20] > 100 µM | [21] > 100 µM | [22] > 100 µM | [23] > 100 µM | [24] > 100 µM | [25] > 100 µM | [26] > 100 µM | [27] > 100 µM | [28] > 100 µM | [29] > 100 µM | [30] > 100 µM | [31] > 100 µM | [32] > 100 µM | [33] > 100 µM | [34] > 100 µM | [35] > 100 µM | [36] > 100 µM | [37] > 100 µM | [38] > 100 µM | [39] > 100 µM | [40] > 100 µM | [41] > 100 µM | [42] > 100 µM | [43] > 100 µM | [44] > 100 µM | [45] > 100 µM | [46] > 100 µM | [47] > 100 µM | [48] > 100 µM | [49] > 100 µM | [50] > 100 µM | [51] > 100 µM | [52] > 100 µM | [53] > 100 µM | [54] > 100 µM | [55] > 100 µM | [56] > 100 µM | [57] > 100 µM
> 100 µM: [18]

Cc1ccc(NC(=O)/C(=N/NC(=O)C[N+](C)(C)C)c2nc3ccccc3nc2O)cc1
inactive: [1] > 100 µM | [2] > 100 µM | [3] > 100 µM | [5] 51.4 µM | [6] > 100 µM | [7] > 100 µM | [8] > 100 µM | [9] > 100 µM | [10] > 100 µM | [12] 76.9 µM | [13] > 100 µM | [14] > 100 µM | [16] > 100 µM | [17] > 100 µM | [19] > 100 µM | [20] > 100 µM | [21] > 100 µM | [23] > 100 µM | [24] > 100 µM | [25] > 100 µM | [26] 27.4 µM | [27] > 100 µM | [28] > 100 µM | [58] > 100 µM | [29] > 100 µM | [30] > 100 µM | [31] > 100 µM | [32] > 100 µM | [33] > 100 µM | [34] 15.7 µM | [35] > 100 µM | [36] > 100 µM | [37] > 100 µM | [38] > 100 µM | [39] > 100 µM | [40] > 100 µM | [41] > 100 µM | [42] > 100 µM | [43] > 100 µM | [44] > 100 µM | [45] > 100 µM | [46] > 100 µM | [47] > 100 µM | [49] > 100 µM | [50] > 100 µM | [51] > 100 µM | [52] > 100 µM | [53] > 100 µM | [54] > 100 µM | [55] > 100 µM | [56] 91.4 µM | [57] > 100 µM
81.1 µM: [18]
